Laboratory results taken from patent publication US20250381171A1, “COMBINATION OF DIHYDROBERBERINE AND ERGOTHIONEINE TO REDUCE OR INHIBIT ADVANCED GLYCATION END-PRODUCTS” (NANJING NUTRABUILDING BIO-TECH CO., LTD., priority 2023, published 2025).

How the values were obtained:
[1] = tested on: advanced glycation end products (AGEs) formed from bovine serum albumin (BSA) and D-ribose; assay: Measurement of glycation: fluorescence of AGEs from BSA incubated with D-ribose; type: biochemical; settings: BSA 1 mg/ml + D-ribose 10 mM, 37° C., 10 days; EGT 3 mM alone or DHB 3 mM + EGT 3 mM
Protocol: The formulation of glycation products was observed placing together a bovine serum albumin (BSA) and D-ribose in the absence of DHB and EGT, EGT only and DHB and EGT combination.
Specifically, a solution of BSA at a concentration of 1 mg/ml dissolved in phosphate-buffered saline (PBS) was incubated at 37° C. for 10 days with D-ribose at a concentration of 10 mM, in the presence of EGT only (3 mM, Group 1) and the DHB (3 mM) and EGT (3 mM) combination (Group 2).
So, the glycation was evaluated by measuring the fluorescence of the AGEs at λem=450 nm emitted by each sample after excitation at λex=380 nm. The inhibition of glycation was visualized by the decrease in fluorescence compared with the samples treated with the sugar alone.

SOD = SOD activity in skin of D-galactose-injected mice; type: in vivo, Kunming mice; settings: 14th week, 100 mg/kg each s.c. once daily for 6 weeks, vs non-supplementation group
Protocol: (§1) Six-week-old, male, Kunming mice (n=40), weighed about 30±2 g, were obtained from Cavens Lab Animal (Changzhou, China) and housed in a controlled room (25±2° C., 60% relative humidity, 12 h light/dark cycle) with free access to water and standard laboratory diet. After an acclimation period (1 week), mice were randomly divided into four groups. Each mouse's back skin was chosen as the experimental observation area, a razor was used to shave off the back hair. 5% sodium sulfide solution was applied to the back to remove the hair. All mice were then injected subcutaneously with same volume of D-galactose (1000 mg/kg), once a day for 8 weeks. During the entire experiment, the daily food intake and weight of each mouse were recorded every day, and the D-galactose injection dose were adjusted according to the weight change. The four groups were non-supplement group (Con, Group 1); DHB supplement group (100 mg/kg, Group 2); EGT supplement group (100 mg/kg, Group 3); and EGT+DHB supplement group (100 mg/kg EGT+100 mg/kg DHB, Group 4). Mice in groups 2-4 were injected subcutaneously (s.c.) into their back skins with the corresponding concentration before each major meal once daily for 6 weeks. All mice were sacrificed after 6 weeks at the end of the experiment. […] The levels of H2O2, SOD, CAT, GSH, and GSH-Px in the skin were detected with relative kits as reference. […]

CAT = CAT activity in skin of D-galactose-injected mice; type: in vivo, Kunming mice; settings: 14th week, 100 mg/kg each s.c. once daily for 6 weeks, vs non-supplementation group
Protocol: as §1

GSH = GSH activity in skin of D-galactose-injected mice; type: in vivo, Kunming mice; settings: 14th week, 100 mg/kg each s.c. once daily for 6 weeks, vs non-supplementation group
Protocol: as §1

GSH-Px = GSH-Px activity in skin of D-galactose-injected mice; type: in vivo, Kunming mice; settings: 14th week, 100 mg/kg each s.c. once daily for 6 weeks, vs non-supplementation group
Protocol: as §1

| SMILES | anti-glycation activity (in words) [1] | SOD activity (in words) (SOD) | CAT activity (in words) (CAT) | GSH activity (in words) (GSH) | GSH-Px activity (in words) (GSH-Px) |
| --- | --- | --- | --- | --- | --- |
| C[N+](C)(C)[C@@H](Cc1c[nH]c(=S)[nH]1)C(=O)[O-] [EGT, ergothioneine] | fabulous anti-glycation activity | significantly improved | significantly improved | significantly improved | significantly improved |
| COc1ccc2c(c1OC)CN1CCc3cc4c(cc3C1=C2)OCO4 [DHB, Dihydroberberine] | – | significantly improved | significantly improved | significantly improved | significantly improved |
